# Laboratory results as given in ChEMBL document CHEMBL4152201, “Novel sarsasapogenin-triazolyl hybrids as potential anti-Alzheimer's agents: Design, synthesis and biological evaluation” (Eur J Med Chem, 2018).
# Calls of active or inactive are those of the source. The rule behind the calls is not given here.
# How the values were obtained:
# Mus musculus [1] = test: Neuroprotective activity amyloid beta (1 to 42) oligomer-induced memory impaired Kunming mouse assessed as reduction in apoptotic cells in CA1 and CA3 hipocampal neurons at 1.3 mg/kg, po starting from day 1 of amyloid beta (1 to 42) oligomer treatment and measured on day 7 by TUNEL assay; format: functional, organism-based
# Mus musculus [2] = test: Cognitive enhancing effect in Kunming mouse model of amyloid beta (1 to 42) oligomer-induced memory impairment assessed as […] in spontaneous alternation behaviors at 1.3 mg/kg/day, po starting from day 1 of amyloid beta (1 to 42) oligomer treatment and measured on day 7 by Y-maze test; format: functional, organism-based
# Mus musculus [3] = test: Toxicity in Kunming mouse model of amyloid beta (1 to 42) oligomer-induced memory impairment assessed as effect on number of arm entries at 1.3 mg/kg/day, po starting from day 1 of amyloid beta (1 to 42) oligomer treatment and measured on day 7 by Y-maze test; format: organism-based; conditions: in vivo
# Mus musculus [4] = test: (§1) Memory enhancing effect in Kunming mouse model of amyloid beta (1 to 42) oligomer-induced memory impairment assessed as increase in preferential index in retention session of 1 hr at 1.3 mg/kg/day, po starting from day 1 of amyloid beta (1 to 42) oligomer treatment and measured on day 7 by novel object recognition test; format: functional, organism-based
# Mus musculus [5] = test: (§2) Cognitive enhancing effect in Kunming mouse model of amyloid beta (1 to 42) oligomer-induced memory impairment increase in time spent in target quadrant by measuring increase in number of platform crossings at 1.3 mg/kg/day, po starting from day 1 of amyloid beta (1 to 42) oligomer treatment and measured on day 12 by Morris water maze test; format: functional, organism-based
# Mus musculus [6] = test: (§3) Cognitive enhancing effect in Kunming mouse model of amyloid beta (1 to 42) oligomer-induced memory impairment assessed as longer escape latency at 1.3 mg/kg, po starting from day 1 of amyloid beta (1 to 42) oligomer treatment and measured on day 7 by passive avoidance test; format: functional, organism-based
# Mus musculus [7] = test: as §3, with “induction of fewer entries into dark compartment” for “longer escape latency”; format: functional, organism-based
# Mus musculus [8] = test: (§4) Neuroprotective activity in Kunming mouse model of amyloid beta (1 to 42) oligomer-induced memory impairment assessed as reduction in neural degeneration in CA1 region at 1.3 mg/kg, po starting from day 1 of amyloid beta (1 to 42) oligomer treatment and measured on day 7 by Nissl's staining-based assay; format: functional, organism-based
# Mus musculus [9] = test: as §4, with “neuronal” for “neural”, “degeneration by measuring clear and intact neurons” for “degeneration”, “CA1 and CA3” for “CA1”, “TUNEL” for “Nissl's staining-based”; format: functional, organism-based
# Mus musculus [10] = test: (§5) Neuroprotective activity in Kunming mouse model of amyloid beta (1 to 42) oligomer-induced memory impairment assessed as reduction in neuronal degeneration by measuring reduction in degenerative changes in nucleus of CA1 and CA3 region at 1.3 mg/kg, po starting from day 1 of amyloid beta (1 to 42) oligomer treatment and measured on day 7 by TUNEL assay; format: functional, organism-based
# [11] = molecular target: T1, Amyloid-beta precursor protein (Homo sapiens, UniProt P05067); test: Inhibition of amyloid beta (1 to 42) (unknown origin) self-aggregation at 20 uM after 24 hrs by thioflavin-T fluorescence assay relative to control
# [12] = molecular target: T1, Amyloid-beta precursor protein; test: Inhibition of amyloid beta (1 to 42) (unknown origin) self-aggregation after 24 hrs by thioflavin-T fluorescence assay
# SH-SY5Y [13] = test: Neuroprotective activity against H2O2-induced oxidative stress in human SH-SY5Y cells assessed as cell viability at 12.5 uM pre-incubated for 1 hr followed by H2O2 addition and measured after 4 hrs by MTT assay relative to control; format: functional; conditions: read-out: Activity
# SH-SY5Y [14] = test: Neuroprotective activity against H2O2-induced oxidative stress in human SH-SY5Y cells assessed as cell viability at 25 uM pre-incubated for 1 hr followed by H2O2 addition and measured after 4 hrs by MTT assay relative to control; format: functional; conditions: read-out: Activity
# SH-SY5Y [15] = test: Neuroprotective activity against H2O2-induced oxidative stress in human SH-SY5Y cells assessed as cell viability at 50 uM pre-incubated for 1 hr followed by H2O2 addition and measured after 4 hrs by MTT assay relative to control; format: functional; conditions: read-out: Activity
# SH-SY5Y [16] = test: Cytotoxicity against human SH-SY5Y cells at 50 uM after 24 hrs by MTT assay; format: cell-based
# Mus musculus [17] = test: Cognitive enhancing effect in Kunming mouse model of amyloid beta (1 to 42) oligomer-induced memory impairment assessed as […] in spontaneous alternation behaviors at 17.5 to 35 mg/kg/day, po starting from day 1 of amyloid beta (1 to 42) oligomer treatment and measured on day 7 by Y-maze test; format: functional, organism-based
# Mus musculus [18] = test: Toxicity in Kunming mouse model of amyloid beta (1 to 42) oligomer-induced memory impairment assessed as effect on number of arm entries at 17.5 to 35 mg/kg/day, po starting from day 1 of amyloid beta (1 to 42) oligomer treatment and measured on day 7 by Y-maze test; format: organism-based; conditions: in vivo
# Mus musculus [19] = test: as §1, with “17.5 to 35” for “1.3”; format: functional, organism-based
# Mus musculus [20] = test: as §2, with “17.5 to 35” for “1.3”; format: functional, organism-based
# Mus musculus [21] = test: (§6) Cognitive enhancing effect in Kunming mouse model of amyloid beta (1 to 42) oligomer-induced memory impairment assessed as longer escape latency at 17.5 to 35 mg/kg, po starting from day 1 of amyloid beta (1 to 42) oligomer treatment and measured on day 7 by passive avoidance test; format: functional, organism-based
# Mus musculus [22] = test: as §6, with “induction of fewer entries into dark compartment” for “longer escape latency”; format: functional, organism-based
# Mus musculus [23] = test: as §4, with “17.5 to 35” for “1.3”; format: functional, organism-based
# Mus musculus [24] = test: as §5, with “measuring clear and intact neurons” for “measuring reduction”, “in” for “in degenerative changes in nucleus of”, “at 17.5 to 35” for “at 1.3”; format: functional, organism-based
# Mus musculus [25] = test: as §5, with “17.5 to 35” for “1.3”; format: functional, organism-based
# Mus musculus [26] = test: Neuroprotective activity amyloid beta (1 to 42) oligomer-induced memory impaired Kunming mouse assessed as reduction in apoptotic cells in CA1 and CA3 hipocampal neurons at 35 mg/kg, po starting from day 1 of amyloid beta (1 to 42) oligomer treatment and measured on day 7 by TUNEL assay; format: functional, organism-based
# [27] = molecular target: T1, Amyloid-beta precursor protein; test: Potency index, ratio of IC50 for curcumin to IC50 for test compound for inhibition of amyloid beta (1 to 42) (unknown origin) self-aggregation after 24 hrs by thioflavin-T fluorescence assay
# Mus musculus [28] = test: as §1, with “17.5” for “1.3”; format: functional, organism-based
# Mus musculus [29] = test: Cognitive enhancing effect in Kunming mouse model of amyloid beta (1 to 42) oligomer-induced memory impairment assessed as longer escape latency at 35 mg/kg, po starting from day 1 of amyloid beta (1 to 42) oligomer treatment and measured on day 7 by passive avoidance test; format: functional, organism-based
# Mus musculus [30] = test: Cognitive enhancing effect in Kunming mouse model of amyloid beta (1 to 42) oligomer-induced memory impairment assessed as induction of fewer entries into dark compartment at 35 mg/kg, po starting from day 1 of amyloid beta (1 to 42) oligomer treatment and measured on day 7 by passive avoidance test; format: functional, organism-based
# T1 sequence (P05067 whole entry): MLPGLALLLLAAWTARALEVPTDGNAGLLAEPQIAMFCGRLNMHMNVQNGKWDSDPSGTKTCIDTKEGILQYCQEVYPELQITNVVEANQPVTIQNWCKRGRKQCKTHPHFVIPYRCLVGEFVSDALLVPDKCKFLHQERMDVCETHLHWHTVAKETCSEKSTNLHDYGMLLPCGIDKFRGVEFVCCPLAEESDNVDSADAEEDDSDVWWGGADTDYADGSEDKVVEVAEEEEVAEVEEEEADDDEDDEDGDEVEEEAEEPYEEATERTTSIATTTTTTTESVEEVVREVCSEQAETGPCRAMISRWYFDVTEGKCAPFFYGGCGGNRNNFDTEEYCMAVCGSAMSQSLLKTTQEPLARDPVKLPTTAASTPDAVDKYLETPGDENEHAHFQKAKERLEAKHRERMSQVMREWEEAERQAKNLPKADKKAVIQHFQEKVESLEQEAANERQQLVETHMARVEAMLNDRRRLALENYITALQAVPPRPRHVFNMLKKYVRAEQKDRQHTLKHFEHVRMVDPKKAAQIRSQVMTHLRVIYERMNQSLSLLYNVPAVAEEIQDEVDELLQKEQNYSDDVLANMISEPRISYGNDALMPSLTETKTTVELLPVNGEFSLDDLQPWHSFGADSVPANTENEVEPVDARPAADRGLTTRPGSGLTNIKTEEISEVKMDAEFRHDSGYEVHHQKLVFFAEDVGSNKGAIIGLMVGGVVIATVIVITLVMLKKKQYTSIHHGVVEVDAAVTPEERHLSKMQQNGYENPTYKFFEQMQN
smiles,measurement,setting,value
COc1cc2c(cc1OC)C(=O)C(CC1CCN(Cc3ccccc3)CC1)C2.Cl (stereo not given) [DONEPEZIL HYDROCHLORIDE],Activity,Mus musculus [1],Active
same,Activity,Mus musculus [2],Active
same,Activity,Mus musculus [3],Non-Toxic
same,Activity,Mus musculus [4],Active
same,Activity,Mus musculus [5],Active
same,Activity,Mus musculus [6],Active
same,Activity,Mus musculus [7],Active
same,Activity,Mus musculus [8],Active
same,Activity,Mus musculus [9],Active
same,Activity,Mus musculus [10],Active
Cc1ccc(Cn2cc(CNC(=O)[C@@H](C)CC[C@H]3O[C@H]4C[C@H]5[C@@H]6CC[C@@H]7C[C@@H](OCc8ccccc8)CC[C@]7(C)[C@H]6CC[C@]5(C)[C@H]4[C@@H]3C)nn2)cc1,inhibition,[11],71.2%
C[C@H]1CC[C@@]2(OC1)O[C@H]1C[C@H]3[C@@H]4CC[C@@H]5C[C@@H](O)CC[C@]5(C)[C@H]4CC[C@]3(C)[C@H]1[C@@H]2C [SARSASAPOGENIN],inhibition,[11],16.4%
same,IC50,[12],> 100 µM
same,viability at 12.5 µM,SH-SY5Y [13],68.2%
same,viability at 25 µM,SH-SY5Y [14],71%
same,viability at 50 µM,SH-SY5Y [15],71.3%
C[C@H]1[C@H]2[C@H](C[C@H]3[C@@H]4CC[C@@H]5C[C@@H](OCc6ccccc6)CC[C@]5(C)[C@H]4CC[C@]23C)O[C@@H]1CC[C@H](C)C(=O)NCc1cn(Cc2ccc(Cl)cc2)nn1,inhibition,[11],70.5%
C[C@H]1[C@H]2[C@H](C[C@H]3[C@@H]4CC[C@@H]5C[C@@H](OCc6ccccc6)CC[C@]5(C)[C@H]4CC[C@]23C)O[C@@H]1CC[C@H](C)C(=O)NCc1cn(Cc2ccccc2)nn1,inhibition,[11],64.2%
C[C@H]1[C@H]2[C@H](C[C@H]3[C@@H]4CC[C@@H]5C[C@@H](OCc6ccccc6)CC[C@]5(C)[C@H]4CC[C@]23C)O[C@@H]1CC[C@H](C)C(=O)NCc1cn(Cc2cscn2)nn1,inhibition,[11],75.1%
same,IC50,[12],8.28 µM
same,Activity,SH-SY5Y [16],Non-Toxic
same,viability at 12.5 µM,SH-SY5Y [13],71.6%
same,viability at 25 µM,SH-SY5Y [14],73.3%
same,viability at 50 µM,SH-SY5Y [15],84.9%
same,Activity,Mus musculus [17],Active
same,Activity,Mus musculus [18],Non-Toxic
same,Activity,Mus musculus [19],Active
same,Activity,Mus musculus [20],Active
same,Activity,Mus musculus [21],Active
same,Activity,Mus musculus [22],Active
same,Activity,Mus musculus [23],Active
same,Activity,Mus musculus [24],Active
same,Activity,Mus musculus [25],Active
same,Activity,Mus musculus [26],Active
same,Ratio IC50,[27],1.8
COc1ccc(Cn2cc(CNC(=O)[C@@H](C)CC[C@H]3O[C@H]4C[C@H]5[C@@H]6CC[C@@H]7C[C@@H](OCc8ccccc8)CC[C@]7(C)[C@H]6CC[C@]5(C)[C@H]4[C@@H]3C)nn2)cc1,inhibition,[11],84.7%
same,IC50,[12],5.84 µM
same,Activity,SH-SY5Y [16],Non-Toxic
same,viability at 12.5 µM,SH-SY5Y [13],71.8%
same,viability at 25 µM,SH-SY5Y [14],80.9%
same,viability at 50 µM,SH-SY5Y [15],63.1%
same,Activity,Mus musculus [17],Active
same,Activity,Mus musculus [18],Non-Toxic
same,Activity,Mus musculus [28],Active
same,Activity,Mus musculus [20],Active
same,Activity,Mus musculus [29],Active
same,Activity,Mus musculus [30],Active
same,Activity,Mus musculus [23],Active
same,Activity,Mus musculus [24],Active
same,Activity,Mus musculus [25],Active
same,Activity,Mus musculus [26],Active
same,Ratio IC50,[27],2.6
CCCn1cc(CNC(=O)[C@@H](C)CC[C@H]2O[C@H]3C[C@H]4[C@@H]5CC[C@@H]6C[C@@H](OCc7ccccc7)CC[C@]6(C)[C@H]5CC[C@]4(C)[C@H]3[C@@H]2C)nn1,inhibition,[11],21.8%
COc1cc(Cn2cc(CNC(=O)[C@@H](C)CC[C@H]3O[C@H]4C[C@H]5[C@@H]6CC[C@@H]7C[C@@H](OCc8ccccc8)CC[C@]7(C)[C@H]6CC[C@]5(C)[C@H]4[C@@H]3C)nn2)cc(OC)c1,inhibition,[11],31.5%
C[C@H]1[C@H]2[C@H](C[C@H]3[C@@H]4CC[C@@H]5C[C@@H](OCc6ccccc6)CC[C@]5(C)[C@H]4CC[C@]23C)O[C@@H]1CC[C@H](C)C(=O)NCc1cn(C)nn1,inhibition,[11],8.34%
C[C@H]1[C@H]2[C@H](C[C@H]3[C@@H]4CC[C@@H]5C[C@@H](OCc6ccccc6)CC[C@]5(C)[C@H]4CC[C@]23C)O[C@@H]1CC[C@H](C)C(=O)NCc1cn(Cc2ccc(F)cc2)nn1,inhibition,[11],37.5%
Cc1c(C)c2c(c(C)c1O)CCC(C)(C(=O)O)O2 (stereo not given) [TROLOX],viability at 12.5 µM,SH-SY5Y [13],78.4%
same,viability at 25 µM,SH-SY5Y [14],80.1%
same,viability at 50 µM,SH-SY5Y [15],78.4%
C[C@H]1[C@H]2[C@H](C[C@H]3[C@@H]4CC[C@@H]5C[C@@H](OCc6ccccc6)CC[C@]5(C)[C@H]4CC[C@]23C)O[C@@H]1CC[C@H](C)C(=O)NCc1cn(Cc2ccc(Br)cc2)nn1,inhibition,[11],55.8%
CCn1cc(CNC(=O)[C@@H](C)CC[C@H]2O[C@H]3C[C@H]4[C@@H]5CC[C@@H]6C[C@@H](OCc7ccccc7)CC[C@]6(C)[C@H]5CC[C@]4(C)[C@H]3[C@@H]2C)nn1,inhibition,[11],11.8%
C[C@H]1[C@H]2[C@H](C[C@H]3[C@@H]4CC[C@@H]5C[C@@H](OCc6ccccc6)CC[C@]5(C)[C@H]4CC[C@]23C)O[C@@H]1CC[C@H](C)C(=O)NCc1cn(Cc2ccc([N+](=O)[O-])cc2)nn1,inhibition,[11],70.7%
C[C@H]1[C@H]2[C@H](C[C@H]3[C@@H]4CC[C@@H]5C[C@@H](OCc6ccccc6)CC[C@]5(C)[C@H]4CC[C@]23C)O[C@@H]1CC[C@H](C)C(=O)NCc1cn(Cc2ccncc2)nn1,inhibition,[11],20.8%
COc1cccc(Cn2cc(CNC(=O)[C@@H](C)CC[C@H]3O[C@H]4C[C@H]5[C@@H]6CC[C@@H]7C[C@@H](OCc8ccccc8)CC[C@]7(C)[C@H]6CC[C@]5(C)[C@H]4[C@@H]3C)nn2)c1,inhibition,[11],64.8%
CC(C)n1cc(CNC(=O)[C@@H](C)CC[C@H]2O[C@H]3C[C@H]4[C@@H]5CC[C@@H]6C[C@@H](OCc7ccccc7)CC[C@]6(C)[C@H]5CC[C@]4(C)[C@H]3[C@@H]2C)nn1,inhibition,[11],52.6%
